Calls of active or inactive are those of the source.

A short description of experiment [1]: cells. The conditions noted are these: A549.
The nature of experiment [2]: A549 cell cytotoxicity, dose response, cytotoxicity control, CellTiter-Glo luminescence, dry powder, set 3 (AID 743146). In kind it is functional, cell-based. On the technique in general: Cellular ATP, detected with luciferase, serves as a proxy for viable cell number.
The nature of experiment [3]: HEK293 cell cytotoxicity, dose response, cytotoxicity control, ATP luminescence, dry powder, Set6 (AID 743142). It is filed as functional, cell-based.
The target of experiment [4] is Arf-GAP with SH3 domain, ANK repeat and PH domain-containing protein 1 (Homo sapiens, UniProt Q9ULH1). In kind it is functional.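 Further: biochemical fluorescence polarization dose–response screen measuring inhibition of ASAP1; ASAP1 GAP domain stimulating GTP hydrolysis by truncated human ARF1.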
Chain of Arf-GAP with SH3 domain, ANK repeat and PH domain-containing protein 1 (Q9ULH1 whole entry, the tested form may be a part): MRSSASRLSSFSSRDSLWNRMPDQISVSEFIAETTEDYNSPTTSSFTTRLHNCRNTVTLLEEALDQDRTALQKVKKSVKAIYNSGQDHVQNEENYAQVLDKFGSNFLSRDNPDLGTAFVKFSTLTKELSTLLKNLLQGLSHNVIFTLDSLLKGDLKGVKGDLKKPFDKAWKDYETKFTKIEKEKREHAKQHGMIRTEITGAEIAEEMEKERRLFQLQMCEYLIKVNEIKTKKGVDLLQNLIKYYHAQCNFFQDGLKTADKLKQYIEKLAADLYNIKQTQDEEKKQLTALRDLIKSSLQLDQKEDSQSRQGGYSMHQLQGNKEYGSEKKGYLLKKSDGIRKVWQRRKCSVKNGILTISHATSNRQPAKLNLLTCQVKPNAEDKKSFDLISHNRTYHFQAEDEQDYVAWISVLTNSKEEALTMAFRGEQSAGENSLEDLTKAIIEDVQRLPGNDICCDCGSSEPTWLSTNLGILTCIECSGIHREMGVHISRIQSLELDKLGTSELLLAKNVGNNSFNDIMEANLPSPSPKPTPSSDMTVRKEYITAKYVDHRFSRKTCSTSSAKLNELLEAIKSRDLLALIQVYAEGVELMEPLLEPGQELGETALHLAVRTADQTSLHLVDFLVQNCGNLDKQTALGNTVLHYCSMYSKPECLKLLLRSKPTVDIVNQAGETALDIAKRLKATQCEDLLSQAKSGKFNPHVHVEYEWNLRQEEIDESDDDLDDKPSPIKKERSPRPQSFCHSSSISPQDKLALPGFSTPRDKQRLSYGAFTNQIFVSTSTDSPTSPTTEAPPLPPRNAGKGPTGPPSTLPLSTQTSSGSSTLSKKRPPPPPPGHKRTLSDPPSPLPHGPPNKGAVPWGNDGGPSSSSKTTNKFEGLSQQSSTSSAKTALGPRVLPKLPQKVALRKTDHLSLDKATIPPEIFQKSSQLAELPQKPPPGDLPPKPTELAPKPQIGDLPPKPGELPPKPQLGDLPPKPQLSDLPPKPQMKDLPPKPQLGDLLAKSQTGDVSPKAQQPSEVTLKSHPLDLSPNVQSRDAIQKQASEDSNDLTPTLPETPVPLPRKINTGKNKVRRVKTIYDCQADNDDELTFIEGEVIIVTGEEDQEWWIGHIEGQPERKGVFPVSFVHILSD
For experiment [5], the target named is T1, Ubiquitin-conjugating enzyme E2 N (Homo sapiens, UniProt P61088).
T1 sequence (P61088 whole entry): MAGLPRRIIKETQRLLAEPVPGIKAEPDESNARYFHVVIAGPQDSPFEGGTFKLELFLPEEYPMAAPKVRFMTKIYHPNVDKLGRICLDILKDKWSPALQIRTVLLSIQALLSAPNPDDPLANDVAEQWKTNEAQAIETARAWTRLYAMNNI
In kind it is functional.

For experiment [6], the target named is T1, Ubiquitin-conjugating enzyme E2 N. It is filed as functional. The source holds these as a separate data set.
The target in experiment [7] is T2, Bcl-2-related protein A1 (Mus musculus, UniProt Q07440).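 Further: confirmatory dose–response counterscreen on Bfl-1, used to check hits from a UBC13 polyubiquitin inhibitor campaign.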
T2 sequence (Q07440 whole entry): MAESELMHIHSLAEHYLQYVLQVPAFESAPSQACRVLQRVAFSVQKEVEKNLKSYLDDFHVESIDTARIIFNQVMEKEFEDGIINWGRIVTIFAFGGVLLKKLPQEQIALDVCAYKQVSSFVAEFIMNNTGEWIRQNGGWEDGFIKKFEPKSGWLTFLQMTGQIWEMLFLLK
In kind it is functional.

A short description of experiment [8]: T. cruzi growth inhibition in host cells, dose response, cell-based, plate reader, dry powder, set 2 (AID 652275). In kind it is functional.
Experiment [9] can be described thus: HepG2 cell cytotoxicity, dose response, cytotoxicity control, CellTiter-Glo luminescence, cherry-pick, set 2 (AID 743395). In kind it is functional.
The target in experiment [10] is T3, Nuclear receptor subfamily 0 group B member 1 (Homo sapiens, UniProt P51843).
T3 sequence (P51843 whole entry): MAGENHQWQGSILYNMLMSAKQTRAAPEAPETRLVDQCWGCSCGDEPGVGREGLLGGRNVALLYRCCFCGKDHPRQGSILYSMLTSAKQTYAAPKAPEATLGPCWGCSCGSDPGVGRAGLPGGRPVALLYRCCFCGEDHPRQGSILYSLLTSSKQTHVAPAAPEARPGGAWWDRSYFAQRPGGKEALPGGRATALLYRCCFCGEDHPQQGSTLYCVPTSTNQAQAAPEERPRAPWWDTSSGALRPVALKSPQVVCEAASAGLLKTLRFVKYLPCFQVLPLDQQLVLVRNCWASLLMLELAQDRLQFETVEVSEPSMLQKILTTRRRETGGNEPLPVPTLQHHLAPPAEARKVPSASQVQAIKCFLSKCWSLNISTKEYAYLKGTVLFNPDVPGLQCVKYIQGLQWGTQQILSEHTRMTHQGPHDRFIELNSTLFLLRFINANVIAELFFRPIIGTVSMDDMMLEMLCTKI
It is filed as functional, cell-based.

Experiment [11] can be described thus: CFTR ΔF508 corrector activity in bronchial cells, dose response, human bronchial epithelial cells, plate reader, cherry-pick, two tests (AID 743267). It is filed as functional, cell-based.
For experiment [12], the target named is T3, Nuclear receptor subfamily 0 group B member 1. The experiment can be described thus: Luminescence-based cell-based high throughput dose response assay for inhibitors of the orphan nuclear receptor subfamily 0, group B, member 1 (DAX1; NR0B1). [Related pubchem assays (depositor defined):AID504766, AID504790]. It is filed as functional.
The nature of experiment [13]: HepG2 cell cytotoxicity, dose response, cytotoxicity control, ATP luminescence, cherry-pick, activator set 2 (AID 1053143). It is filed as functional, cell-based.
A short description of experiment [14]: inhibitors of fibronectin matrix deposition, dose response, AH1F cells, Alexa488-FN fluorescence, cherry-picks (AID 1035475). It is filed as functional, cell-based.
Experiment [15] is described as follows: HepG2 cell cytotoxicity, dose response, cytotoxicity control, cherry-picks, set 5 (AID 1053118). In kind it is functional, cell-based.
Experiment [16] is described as follows: HEK293 cell cytotoxicity, dose response, cytotoxicity control, cherry-picks, set 5 (AID 1053117). In kind it is functional, cell-based.
Experiment [17] can be described thus: A375 melanoma cell cytotoxicity, dose response, counter-screen for MITF inhibitor project, CellTiter-Glo luminescence, dry powder, set 2 (AID 624489).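 Further: actives are compounds lowering A375 viability meaning general cytotoxicity.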 Particulars: A-375. It is filed as functional, cell-based. In general terms: The purpose of a counterscreen is to sort out artefacts and off-target activity.
Experiment [18] is described as follows: A375 melanoma cell viability loss, dose response, counter-screen for MITF inhibitor project, CellTiter-Glo luminescence, dry powder, set 4 (AID 624364).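 Further: A375 melanoma cells are MITF independent so this is a counter screen.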 In kind it is functional, cell-based. The conditions noted are these: A-375.
Experiment [19] is described as follows: human group III sPLA2 inhibitors, dose response, biochemical, QFRET, IC50 (AID 743457).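 Further: green fluorescence rise as the enzyme cleaves BODIPY PC-A2 in liposomes; potency for inhibition of the enzyme.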

Turning to `Cc1noc(C)c1-c1ccc(C(=O)NCCc2ccccc2)c2occc12`, the AC50 in experiment [1] was > 52 µM (inactive).
As to `O=C(CCNC(=O)c1ccc(Cl)c(Cl)c1)N[C@@H]1CCCc2ccccc21`, the results for the concentration at half-maximal activity (AC50) in experiment [2] and in [3] were 26 µM (active) and 3.34 µM (active), respectively.
In the case of `COCCN=C(S)N=Nc1c(O)[nH]c2ccc([N+](=O)[O-])cc12`, the IC50 in experiment [4] is 26.8 µM (inactive); in [5], 6.15 µM (active); in [6], 1.52 µM (active); in experiment [7] it was > 20 µM (inactive).
Take `CN(C)C(=O)c1cccc(-c2ccc([C@H]3[C@@H](CO)N4CCCCN(C(=O)C5CCC5)C[C@@H]34)cc2)c1`: the AC50 in [8] is 1.06 µM (active).
`O=C(CCCCCCC(=O)Nc1ccccc1)NO` [VORINOSTAT] registered an AbsAC35_uM in [9] of 0.468 µM. Besides, the half-inhibitory concentration (IC50) was 0.747 µM (active) in experiment [10] and > 67.6 µM (inactive) in [12]. Further, the AC50 is 0.933 µM (active) in experiment [11] and 1.75 µM (active) in experiment [13].
In the case of `O=S(=O)(c1ccccc1F)N1CC[C@@H]2[C@@H](CO)Nc3ccc(-c4cccc(F)c4)cc3[C@@H]21`, the AC50 was 39.9 µM (active) in experiment [14], 32.6 µM (active) in experiment [15] and > 52 µM (inactive) in experiment [16].
For `C=CCNC1=C(N2CCN(C)CC2)C(=O)c2ccccc2C1=O`, the figures for the AC50 in [17] and in experiment [18] were 15.9 µM (active) and 34.4 µM (active), respectively.
`Cc1ccc(NC(S)=NNC(=O)CSc2nnc(-c3ccc(Cl)cc3)n2C2CCCCC2)cc1`: the IC50 in experiment [19] is > 40.6 µM (inactive).

The AC50 is the midpoint of the concentration-response curve, whichever way the signal moves. As a reminder, the IC50 is the concentration needed to halve the response being measured.
